The assay relates to Orexin A (ORX-A) producing neurons in the DMH/PeF. Nature of the assay: c-Fos induction in ORX neurons of 1-AG and d-AG treated rats. It is filed as in vivo, rat. Conditions: 1-AG infused into DMH/PeF (3.5 nmol/0.5 μl per hour); vs d-AG treated control rats. As for the experimental part: Methods for perfusion and for verification of cannulae placements in experiment 12 were performed following procedures discussed herein. Briefly, 1-AG or d-AG treated rats received i.v. infusions of either lactate or saline vehicle over 15 min (n=6/group for 4 groups), were immediately tested in the SI test, then anesthetized and perfused with a 4% paraformaldehyde/1.5% sucrose solution and processed for immunohistochemistry 90 min following the onset of the i.v. infusions.
Brain sections from all rats were immunostained with the appropriate primary antibody in a single immunohistochemical run, rather than in batches, with large volume incubations to limit variability in the quality of immunohistochemical staining among brain sections.
Sections were washed in PBS and then incubated in 1% H2O2 in PBS for 20 min. Sections were washed in PBS then PBST then incubated 12-16 h in PBST with primary antibody. The following day, sections were incubated 2 h in the appropriate secondary antibody: biotinylated swine anti-rabbit IgG (c-Fos day 1, and orexin A or MCH day 2; cat no. E0353; DAKO, diluted 1:200). Sections were washed again for 30 min in PBST then incubated 1.5 h in an avidin-biotin-peroxidase complex (cat no. PK-6100, Vector Labs, diluted 1:200). […]

Consider `C=CC[C@H](N)C(=O)O` [1-AG, 1-allylglycine], for which the “c-Fos immunoreactive ORX-A neurons in the DMH/PeF” value is reported as “increased”.

The values above are taken from US8877773B2, “Methods for treating chronic obstructive pulmonary disease” (Indiana University Research and Technology Corporation, priority 2009, dated 2014).
